Measured values reported in patent publication US6630454B2, “Method and pharmaceutical composition for the treatment of cancer” (priority 2001, dated 2003).

Assays:
[1] = highest safe dose used for accepted indications; cited from earlier work
[2] = system: PANC-1, C6, MCF-7, U2OS and HT1080 cells
Protocol: Studies similar in general to those outlined in the previous section, were conducted with five cell lines selected for this task (PANC-1, C6, MCF-7, U2OS and HT1080), increasing the length of the experiment to 48 hours. The studies were done with DOX and with Vinblastine (VIN or VLB).

C6 and PANC-1 cells = system: C6 and PANC-1 cells; set-up: dose or concentration left out as unconfirmed; conditions: […] μM fluoxetine alone, 24 hours
[3] = clinical studies, review (DeVita et al., 1993); cited from earlier work

Row | Structure (SMILES) | highest safety limit [1] [µM] | potentiation of the cytotoxic effect of the chemotherapeutic drug [2] | effect of fluoxetine alone on cell survival (C6 and PANC-1 cells) | side effects / dose-limiting toxicity when used as chemosensitizer [3]
1 | CNCCC(Oc1ccc(C(F)(F)F)cc1)c1ccccc1 (centres unmarked) [fluoxetine, N-methyl 3-(p-trifluoromethylphenoxy)-3-phenylpropylamine] | 15 | potentiates the cytotoxic effect | does not affect cell survival at all | 
2 | CC/C(=C(\c1ccccc1)c1ccc(OCCN(C)C)cc1)c1ccccc1 [tamoxifen] |  |  |  | attributed to the inherent toxicity of the chemosensitizer
3 | CN1CCN(CCCN2c3ccccc3Sc3ccc(C(F)(F)F)cc32)CC1 [trifluoperazine] |  |  |  | attributed to the inherent toxicity of the chemosensitizer
